Laboratory results published in US20190022152A1, “MICROBIOME RESPONSE TO AGENTS” (Yeda Research and Development Co., Ltd., priority 2014, published 2019).
Peptide text beside a SMILES is read from it.

Experiments:
[1] = tested on: fecal matter from naïve mice; test: In vitro anaerobic culturing of fecal matter with saccharin; assay type: cell-based; conditions: In vitro, PBS vs. SAC
Description: pooled fecal matter from naïve adult WT C57Bl/6 male mice was resuspended in 5 ml PBS in an anaerobic chamber (Coy Laboratory Products, 75% N2, 20% CO2, 5% H2), vortexed for 3 minutes and allowed to settle by gravity for 2 minutes. […] were added to a tube containing Chopped Meat Carbohydrate Broth, PR II (BD) and […] of a 5 mgml-1 saccharin solution or an equal volume of PBS. Every 3 days, 500 ml of culture were diluted to fresh medium containing saccharin or PBS. After 9 days, cultures were used for inoculation of germ-free mice.
Frozen fecal samples were processed for DNA isolation using the MoBio PowerSoil kit according to the manufacturer's instructions. […] the variable region 2 (V2) of the 16S rRNA gene were generated by using the following barcoded primers: Fwd 5′-[…]-3′ (SEQ ID NO: 3), Rev 5′-[…]-3′ (SEQ ID NO: 4). […] Reads were then processed using the QIIME (Quantitative Insights Into Microbial Ecology) analysis pipeline as described, version 1.8. Paired-end joined sequences were grouped into operational taxonomic units (OTUs) using the UCLUST algorithm and the greengenes database. Sequences with distance-based similarity of 97% or greater over median sequence length of 353 bp were assigned to the same OTU. Samples were grouped according to the treatment. […] P-values were FDR corrected for multiple hypothesis testing.

[2] = literature values; cited from earlier work
[3] = tested on: mice; test: Oral glucose tolerance test in mice drinking non-caloric artificial sweeteners (NAS); assay type: in vivo; conditions: lean C57Bl/6 mice, normal chow, commercial NAS formulations in drinking water, week 11; p<0.001 vs water, glucose, sucrose
Text: C57Bl/6 WT adult male mice were randomly assigned (without blinding) to treatment groups and were given commercial artificial sweeteners (saccharin-, sucralose- or aspartame-based) or pure saccharin (Sigma Aldrich) in drinking water and fed a high-fat (HFD D12492, 60% Kcal from fat, Research Diets) or standard polysaccharide normal chow (NC) diet (Harlan-Teklad). Compared groups were always fed from the same batch of diet. For antibiotic treatment, mice were given a combination of ciprofloxacin (0.2 gl^−1) and metronidazole ([…]) or vancomycin (0.5 gl^−1) in their drinking water. All antibiotics were obtained from Sigma Aldrich. Adult male outbred Swiss-Webster mice (a widely used mouse strain in germ-free experiments) served as recipients for fecal transplants and were housed in sterile isolators (Park Biosciences). For fecal transplantation experiments, 200 mg of stool (from mouse pellets or human swabs) was resuspended in 5 ml of PBS under anaerobic conditions, vortexed for 3 minutes and allowed to settle by gravity for 2 minutes. Recipient mice were gavaged with 200 μl of the supernatant and maintained on standard NC diet and water throughout the experiment.
The following commercially available NAS were dissolved in mice drinking water to obtain a 10% solution: Sucrazit (5% saccharin, 95% glucose), Sucralite (5% Sucralose), Sweet'n Low Gold (4% Aspartame). 10% glucose (J.T. Baker) and 10% sucrose (Sigma Aldrich) solutions were used for controls. […] For experiments conducted with pure saccharin (Sigma Aldrich) a 0.1 mgml^−1 solution was used in order to meet with FDA defined ADI for saccharin in humans (5 mgkg^−1), according to the following calculation:
Mice were fasted for 6 hours during the light phase, with free access to water. In all groups of mice where the drinking regime was other than water, it was substituted for water for the period of the fasting and glucose or insulin tolerance test. Blood from the tail vein was used to measure glucose levels using a glucometer (Bayer) immediately before and 15, 30, 60, 90 and 120 minutes after oral feeding with 40 mg glucose (J.T. Baker) or intra-peritoneal injection with 0.1 Ukg^−1 Insulin (Biological Industries). Plasma fasting insulin levels were measured in sera collected immediately before the start of GTT using ELISA (Ultra Sensitive Mouse Insulin ELISA Kit, Crystal Chem).

O=C1NS(=O)(=O)c2ccccc21 [SAC]
Log_fold change: 2-Oxocarboxylic acid metabolism [1]: 0.01 | Log_fold change: ABC transporters [1]: −0.03 | Log_fold change: Alanine, aspartate and glutamate metabolism [1]: −0.01 | Log_fold change: Amino sugar and nucleotide sugar metabolism [1]: 0.01 | Log_fold change: Aminoacyl-tRNA biosynthesis [1]: −0.02 | Log_fold change: Aminobenzoate degradation [1]: −0.01 | Log_fold change: Arginine and proline metabolism [1]: −0.01 | Log_fold change: Ascorbate and aldarate metabolism [1]: 0.03 | Log_fold change: Atrazine degradation [1]: −0.05 | Log_fold change: Bacterial chemotaxis [1]: 0.03 | Log_fold change: Bacterial secretion system [1]: 0.01 | Log_fold change: Base excision repair [1]: 0.00 | Log_fold change: Benzoate degradation [1]: −0.01 | Log_fold change: Biosynthesis of amino acids [1]: 0.00 | Log_fold change: Biosynthesis of siderophore group nonribosomal peptides [1]: −0.02 | Log_fold change: Biosynthesis of unsaturated fatty acids [1]: −0.03 | Log_fold change: Biotin metabolism [1]: −0.01 | Log_fold change: Bisphenol degradation [1]: 0.00 | Log_fold change: Butanoate metabolism [1]: −0.01 | Log_fold change: CS-Branched dibasic acid metabolism [1]: 0.01 | Log_fold change: Caprolactam degradation [1]: −0.02 | Log_fold change: Carbon fixation in photosynthetic organisms [1]: 0.00 | Log_fold change: Carbon fixation pathways in prokaryotes [1]: 0.00 | Log_fold change: Carbon metabolism [1]: −0.01 | Log_fold change: Cell cycle-Caulobacter [1]: 0.00 | Log_fold change: Chloroalkane and chloroalkene degradation [1]: −0.03 | Log_fold change: Citrate cycle (TCA cycle) [1]: 0.00 | Log_fold change: Cyanoamino acid metabolism [1]: 0.02 | Log_fold change: Cysteine and methionine metabolism [1]: 0.01 | Log_fold change: D-Alanine metabolism [1]: −0.04 | Log_fold change: D-Arginine and D-ornithine metabolism [1]: 0.24 | Log_fold change: D-Glutamine and D-glutamate metabolism [1]: −0.03 | Log_fold change: DDT degradation [1]: −0.35 | Log_fold change: DNA replication [1]: 0.00 | Log_fold change: Dioxin degradation [1]: −0.12 | Log_fold change: Drug metabolism-other enzymes [1]: 0.00 | Log_fold change: Ether lipid metabolism [1]: −0.02 | Log_fold change: Fatty acid biosynthesis [1]: −0.01 | Log_fold change: Fatty acid degradation [1]: −0.01 | Log_fold change: Fatty acid metabolism [1]: 0.00 | Log_fold change: Flagellar assembly [1]: 0.07 | Log_fold change: Folate biosynthesis [1]: 0.00 | Log_fold change: Fructose and mannose metabolism [1]: 0.00 | Log_fold change: Galactose metabolism [1]: 0.02 | Log_fold change: Geraniol degradation [1]: 0.00 | Log_fold change: Glutathione metabolism [1]: −0.03 | Log_fold change: Glycerolipid metabolism [1]: 0.00 | Log_fold change: Glycerophospholipid metabolism [1]: −0.02 | Log_fold change: Glycine, serine and threonine metabolism [1]: 0.00 | Log_fold change: Glycolysis/Gluconeogenesis [1]: −0.02 | Log_fold change: Glycosaminoglycan degradation [1]: 0.03 | Log_fold change: Glycosphingolipid biosynthesis-globoseries [1]: 0.05 | Log_fold change: Glyoxylate and dicarboxylate metabolism [1]: 0.01 | Log_fold change: Histidine metabolism [1]: 0.01 | Log_fold change: Homologous recombination [1]: −0.01 | Log_fold change: Inositol phosphate metabolism [1]: 0.02 | Log_fold change: Limonene and pinene degradation [1]: −0.01 | Log_fold change: Lipoicacid metabolism [1]: −0.01 | Log_fold change: Lipopolysaccharide biosynthesis [1]: 0.01 | Log_fold change: Lysine biosynthesis [1]: 0.00 | Log_fold change: Lysine degradation [1]: −0.03 | Log_fold change: Methane metabolism [1]: −0.01 | Log_fold change: Mismatch repair [1]: −0.01 | Log_fold change: Naphthalene degradation [1]: −0.02 | Log_fold change: Nicotinate and nicotinamide metabolism [1]: −0.02 | Log_fold change: Nitrogen metabolism [1]: 0.00 | Log_fold change: Nitrotoluene degradation [1]: −0.05 | Log_fold change: Novobiocin biosynthesis [1]: 0.02 | Log_fold change: Nucleotide excision repair [1]: 0.00 | Log_fold change: One carbon pool by folate [1]: 0.01 | Log_fold change: Other glycan degradation [1]: 0.03 | Log_fold change: Oxidative phosphorylation [1]: −0.02 | Log_fold change: Pantothenate and CoA biosynthesis [1]: 0.00 | Log_fold change: Penicillin and cephalosporin biosynthesis [1]: −0.02 | Log_fold change: Pentose and glucuronate interconversions [1]: 0.02 | Log_fold change: Pentose phosphate pathway [1]: 0.00 | Log_fold change: Peptidoglycan biosynthesis [1]: −0.02 | Log_fold change: Phenylalanine metabolism [1]: 0.01 | Log_fold change: Phenylalanine, tyrosine and tryptophan biosynthesis [1]: 0.01 | Log_fold change: Phosphonate and phosphinate metabolism [1]: −0.01 | Log_fold change: Phosphotransferase system (PTS) [1]: −0.17 | Log_fold change: Porphyrin and chlorophyll metabolism [1]: 0.01 | Log_fold change: Propanoate metabolism [1]: −0.01 | Log_fold change: Protein export [1]: −0.01 | Log_fold change: Proximal tubule bicarbonate reclamation [1]: −0.02 | Log_fold change: Purine metabolism [1]: −0.01 | Log_fold change: Pyrimidine metabolism [1]: −0.01 | Log_fold change: Pyruvate metabolism [1]: 0.00 | Log_fold change: RNA degradation [1]: −0.01 | Log_fold change: Riboflavin metabolism [1]: 0.01 | Log_fold change: Ribosome [1]: −0.01 | Log_fold change: Selenocompound metabolism [1]: −0.01 | Log_fold change: Sphingolipid metabolism [1]: 0.04 | Log_fold change: Starch and sucrose metabolism [1]: 0.01 | Log_fold change: Streptomycin biosynthesis [1]: 0.00 | Log_fold change: Styrene degradation [1]: 0.06 | Log_fold change: Sulfur metabolism [1]: −0.01 | Log_fold change: Sulfur relay system [1]: −0.03 | Log_fold change: Synthesis and degradation of ketone bodies [1]: −0.09 | Log_fold change: Taurine and hypotaurine metabolism [1]: 0.00 | Log_fold change: Terpenoid backbone biosynthesis [1]: −0.01 | Log_fold change: Tetracycline biosynthesis [1]: −0.15 | Log_fold change: Thiamine metabolism [1]: −0.02 | Log_fold change: Tropane, piperidine and pyridine alkaloid biosynthesis [1]: 0.02 | Log_fold change: Tryptophan metabolism [1]: −0.04 | Log_fold change: Two−component system [1]: 0.01 | Log_fold change: Tyrosine metabolism [1]: −0.01 | Log_fold change: Ubiquinone and other terpenoid-quinone biosynthesis [1]: −0.03 | Log_fold change: Valine, leucine and isoleucine biosynthesis [1]: 0.01 | Log_fold change: Valine, leucine and isoleucine degradation [1]: 0.00 | Log_fold change: Vibriocholerae pathogenic cycle [1]: 0.00 | Log_fold change: Vitamin B6 metabolism [1]: 0.00 | Log_fold change: Xylene degradation [1]: −0.12 | Log_fold change: beta-Alanine metabolism [1]: −0.01 | Log_fold change: beta-Lactam resistance [1]: 0.01

COC(=O)[C@H](Cc1ccccc1)NC(=O)[C@@H](N)CC(=O)O [aspartame] (H-Asp-Phe-OMe)
reported toxic dose [2]: 4 gkg^−1 | glucose tolerance (OGTT) [3]: marked glucose intolerance

OC[C@H]1O[C@H](O[C@]2(CCl)O[C@H](CCl)[C@@H](O)[C@@H]2O)[C@H](O)[C@@H](O)[C@H]1Cl [sucralose]
reported toxic dose [2]: 16 gkg^−1 | glucose tolerance (OGTT) [3]: marked glucose intolerance
